Test results: patent US20040120938A1, “Ingestible compositions comprising antibacterial agents” (The University of Bath, priority 1998, published 2004)
pIC50: −log10 of the molar value. Read-outs that look alike come from different tables or passages of the source.

Key:
E. coli [1] = assay: Peroxynitrite scavenger and XO systems on bacterial growth curves in nutrient broth (Test 8(d)); type: cell-based
Procedure: E. coli were seeded into nutrient broth at 2.10^7 cell ml^−1 and incubated at 37° C. under atmospheric air conditions (that is, 21% oxygen saturation). Four separate test samples of volume 1 ml were prepared by addition at 1 hour of incubation as follows:
1 Peroxynitrite at concentration 100 μM.
2 Peroxynitrite at 100 μM and quercetin (peroxynitrite scavenger) at 100 μM.
3 Xanthine oxidase (53.2 μg) and xanthine at 100 μM.
4 Xanthine oxidase (53.2 μg) and NADH at 100 μM.
Corresponding controls were also prepared, and the growth curves generated over time determined by monitoring absorbance.

Escherichia coli NCTC 86 = assay: Peroxynitrite effect on cell viability, viable colony count (Test 8(a)); type: cell-based; details: E. coli; for pIC50: Escherichia coli, NCTC86
Procedure: To obtain cells used in this test, the infective bacterial strain Escherichia coli NCTC 86 (E. coli) was cultured on nutrient agar at 37° until colony formation occurred, usually overnight. This stock culture was used for subsequent experiments including sub-culturing in nutrient broth and plated onto agar weekly. Experimental cultures of E. coli were set up overnight in nutrient broth from single colonies on an agar plate. Cells were harvested and counted using a standard curve of known absorbance at 470 nm against viable cell count. Peroxynitrite was generated by the method of Crow et al, Biochem. 34, p. 3544-3552 (1995). […] The concentration of ONOO^− formed was measured using an absorption coefficient of 1670 M^−1 cm^−1 in a spectrophotometer at a wavelength of 303 nm. Solutions of different concentrations for use in (a) below were obtained by dilution of the product solution using PBS. Cells cultured as described above were diluted to suitable working concentrations (10^4-10^5 Cells Ml^−1) in sterile phosphate buffered saline (PBS). ONOO^− at a range of concentrations from […] to 0.01 μm was added as a bolus dose to cells and incubated at room temperature for ten minutes. Aliquots were taken from the cell cultures and plated on to nutrient agar and incubated in a warm room at 37° C. overnight. Viable cells formed colonies on the agar and were counted. The number of colonies formed was related to an untreated control and a graph of the results is shown in FIG. 1, which illustrates the effect of ONOO^− on cell viability.

S. enteritidis [2] = assay: Peroxynitrite effect on cell viability (Test 8(a)); type: cell-based; details: Salmonella enterica
Procedure: Cells cultured as described above were diluted to suitable working concentrations (10^4-10^5 Cells Ml^−1) in sterile phosphate buffered saline (PBS). ONOO^− at a range of concentrations from […] to 0.01 μm was added as a bolus dose to cells and incubated at room temperature for ten minutes. Aliquots were taken from the cell cultures and plated on to nutrient agar and incubated in a warm room at 37° C. overnight. Viable cells formed colonies on the agar and were counted. The number of colonies formed was related to an untreated control and a graph of the results is shown in FIG. 1, which illustrates the effect of ONOO^− on cell viability.

[3] = test system: contaminants of semi-skimmed bovine milk (postulated Lactobacilli sp.); assay: Peroxynitrite addition to semi-skimmed bovine milk, colony forming units (Test 8(b)); type: cell-based; details: 4° C., four days
Procedure: Commercially produced bovine milk was purchased in semi-skimmed form. Aliquots were taken on day one of experimentation and plated onto nutrient agar and grown overnight at 37° C. The number of colonies formed following incubation was counted. The remaining milk was divided into three portions after removal of those aliquots. No peroxynitrite was added to the first portion, which was the control. A single bolus dose of 100 μM ONOO^− was added to the second portion on day one, and the third portion was treated by addition of a daily bolus dose of 100 μM ONOO^−. The portions were stored during the four days of the test at a temperature of 4° C. Each day, aliquots were taken from each portion and cultured overnight at 37° C. for viable count determination. […] Although the contaminants were not formally identified, it was postulated that they included at least Lactobacilli sp., that being a cell type often present in milk.

Lactobacillus casei 6375 = assay: Bacterial growth rate by optical density, 96 well plate (Tests 8(f), 8(g)); type: cell-based; details: Lacticaseibacillus casei, 6375; Lactobacillus casei; bolus at beginning of logarithmic growth; read-out: Half maximal concentration ONOO -
Procedure: (§1) Bacteria were seeded into nutrient broth (NB) and grown over night at 37° C. The culture was then counted and normalised to give a final cell concentration of 1.8×10^7 cells well^−1 into the wells of a 96 well plate in fresh nutrient broth. The optical density of each well was monitored every 15 minutes as a measure of the growth rate of each bacterial species. Growth curves were generated for each species and the maximal rate of growth (logarithmic phase) was measured. Cells were treated to a range of experimental conditions in which the growth rate of cells was related to a control of untreated cells. The results were expressed as a percentage of the growth rate of the control cells.
(§2) (i) At a fixed concentration of hypoxanthine (100 μM) a range of purified XO protein concentrations were added at time 0 minutes. The optical density was followed and the growth rate calculated.
(§3) (ii) The growth rate was also measured in relation to the concentration of hypoxanthine, using 30 μg of XO with cells seeded as described above.
(§4) (iv) The effect of XO hypoxanthine addition was measured on the growth rate of a range of bacterial species with 30 […] XO at varying hypoxanthine concentrations using cells seeded as described above.

[4] = test system: Staphylococcus aureus 6751; assay: as above; type: cell-based
Procedure: as §1, §2, §3, §4

E. coli [5] = assay: Xanthine oxidase derived species on cell viability at a range of oxygen concentrations (Test 8(c)); type: cell-based
Procedure: E. coli were cultured as described above. Aliquots were taken and incubated with a reaction system consisting of bovine Xanthine oxidase (XO) (53.2 μgml^−1), nicotinamide adenine dinucleotide in reduced form (NADH) (300 μM), sodium nitrite, (NaNO2) 1 mM and oxygen at a range of concentrations. Desired oxygen concentrations were generated by delivery into the system of a mixture of oxygen and nitrogen in appropriate proportions and determined using a Clark-type O2 electrode. This reaction was followed at 37° C. for 30 min with mixing before an aliquot was taken and plated onto agar and incubated in a warm room at 37° C. Viable cells formed colonies on the agar and were counted. Viable cell counts were performed in triplicate and the results expressed as a percentage viable count in each case related to a non enzyme control of the same oxygen concentration. […] The range of oxygen tensions used covers those in which XO has previously been considered to be active, namely superoxide generation (21% O2 saturation) and nitric oxide production (0% O2 saturation). A certain amount of killing is seen at both of these extremes as compared with control samples. However, it is only at an intermediate oxygen concentration that the greatest amount of killing is observed. […] Corresponding data obtained in respect of S. enteritidis indicated a peak killing oxygen concentration of 0% for that cell type.
Replacement of NADH in the above method by 100 μM hypoxanthine, with a sodium nitrite concentration of 2.5 μM led to slightly higher peak killing oxygen concentrations (6.4% for E. coli and 1.5% for S. enteritidis).

[6] = test system: nitric oxide (NO) release; assay: NO release from pure bovine xanthine oxidase with nitrite and NADH under hypoxia (Tests 1-3); type: biochemical
Procedure: The production of nitric oxide in the following tests and examples was analysed using an ozone chemiluminescence assay in a continuous flow apparatus (Sievers NOA 280) that allows the real time analysis of NO production. The apparatus was modified to allow a constant stream of nitrogen to flow into the reaction chamber. Chemiluminescence data were collected by a data acquisition system; the mean NO produced in parts per billion (ppb) was calculated from readings taken every second and shown as ppb or mV.
Progress curves, of molar production of NO against time, were calculated by taking into account the gas flow and the mean level of NO. Molar production of NO was expressed as ppb/sec or mV/sec. Reactions were carried out in a final volume of 1 ml at 37° C. in an atmosphere of <1% oxygen (Stathkelvin combination needle oxygen electrode, Diamond General Corp.).
The release of nitric oxide (NO) from a composition including pure bovine xanthine oxidase under hypoxia conditions was studied. The samples studied comprised reduced β-Nicotinamide adenine dinucleotide (NADH) and nitrite (NO2^−) and pure bovine xanthine oxidase.
Bovine xanthine oxidase was diluted with PBS as indicated in Table 1 below to give 300 μl of enzyme mixture. The enzyme mixture (300 μl) was mixed with 700 μl of a substrate mixture to give an assay volume of 1 ml. The substrate mixture comprised nitrite which was added to the assay to give a concentration of 1 mM and NADH which was added to give a concentration of 0.3 mM. Where, for example in Tests 2 to 4 below, additional components are added to the sample, the amount of PBS is adjusted accordingly to give an assay volume of 1 ml. The sample was placed in the reaction vessel of the NO determination apparatus under a nitrogen atmosphere and the generation of NO was measured and the results calculated as a steady state rate in mV/s.
Using the method described above in respect of Test 1, the effect of the variation in the concentration of NADH on the production of NO was investigated. 4 mM NADH was diluted with PBS to give the relevant concentration.
Using the method described above in respect of Test 1, the effect of the variation in the concentration of nitrite on the production of NO was investigated. As for Test 1, the concentration of NADH was 0.3 mM. 1M nitrite (or 100 mM nitrite, where appropriate for low concentrations) was diluted with PBS to give the relevant concentration.

S. enteritidis [7] = assay: Xanthine oxidase derived species on cell viability at a range of oxygen concentrations (Test 8(c)); type: cell-based

O=c1c(O)c(-c2ccc(O)c(O)c2)oc2cc(O)cc(O)c12 [quercetin]
effect on peroxynitrite killing (E. coli [1]; 100 μM with peroxynitrite 100 μM): clear effect in reducing killing

O=NOO [Peroxynitrite]
effect on cell viability (viable count, FIG. 1) (Escherichia coli NCTC 86; range of concentrations, ten minutes): profound inhibitory effect | pIC50 (Escherichia coli NCTC 86; bolus dose, ten minutes at room temperature in PBS, read-out: IC50 (concentration that reduces viability to 50% of control viable count)): 5.85 | pIC50 (Escherichia coli NCTC 86; value matches Test 8(a) viability IC50, read-out: Half maximal concentration ONOO -): 5.85 | pIC50 (S. enteritidis [2]; S. enteritidis, similar conditions, read-out: IC50 (concentration that reduces viability to 50% of control viable count)): 5.69 | pIC50 (S. enteritidis [2]; Salmonella enteritidis, value matches Test 8(a) viability IC50, read-out: Half maximal concentration ONOO -): 5.70 | colony forming units (CFU) in milk compared to control ([3]; daily bolus dose of 100 μM, p<=0.01, also below single dose p<=0.05): reduced the CFU significantly below control | colony forming units (CFU) in milk compared to control ([3]; single bolus dose of 100 μM on day one, p<=0.01): reduced the CFU significantly | killing (growth curve) (E. coli [1]; 100 μM added at 1 hour, 21% oxygen saturation): strong killing | pIC50 (Lactobacillus casei 6375): 4.26 | pIC50 ([4]; 6751, Staphylococcus aureus, bolus at beginning of logarithmic growth, read-out: Half maximal concentration ONOO -): 3.54

O=c1[nH]c(=O)c2[nH]cnc2[nH]1 [xanthine]
killing using xanthine instead of hypoxanthine (E. coli [5]; XO system, cell type not specified): More limited killing

xanthine oxidoreductase [XOR]
NO release ([6]; XOR 21.4 μg, nitrite 0 mM, NADH 0.3 mM): 0.00 mV/s | NO release ([6]; XOR 21.4 μg, nitrite 1 mM, NADH 0.3 mM): 53.75 mV/s | NO release ([6]; XOR 21.4 μg, nitrite 5 mM, NADH 0.3 mM): 184.8 mV/s | NO release ([6]; XOR 21.4 μg, nitrite 10 mM, NADH 0.3 mM): 378.10 mV/s | NO release ([6]; XOR 21.4 μg, nitrite 25 mM, NADH 0.3 mM): 407.55 mV/s | NO release ([6]; XOR 21.4 μg, nitrite 50 mM, NADH 0.3 mM): 474.05 mV/s | NO release ([6]; XOR 53.5 μg, NADH 0.00 mM): 0.00 mV/s | NO release ([6]; XOR 53.5 μg, NADH 0.10 mM): 30.45 mV/s | NO release ([6]; XOR 53.5 μg, NADH 0.25 mM): 66.80 mV/s | NO release ([6]; XOR 53.5 μg, NADH 0.50 mM): 92.55 mV/s | NO release ([6]; XOR 53.5 μg, NADH 1.00 mM): 103.35 mV/s | NO release ([6]; XOR 53.5 μg, NADH 2.00 mM): 109.20 mV/s | NO release ([6]; XOR 107.0 μg, NADH 0.00 mM): 0.00 mV/s | NO release ([6]; XOR 107.0 μg, NADH 0.10 mM): 74.45 mV/s | NO release ([6]; XOR 107.0 μg, NADH 0.25 mM): 142.70 mV/s | NO release ([6]; XOR 107.0 μg, NADH 0.50 mM): 192.65 mV/s | NO release ([6]; XOR 107.0 μg, NADH 1.00 mM): 230.05 mV/s | NO release ([6]; XOR 107.0 μg, NADH 2.00 mM): 264.65 mV/s | NO release ([6]; XOR protein in assay 21.4 μg, 1 mM nitrite, 0.3 mM NADH): 50.05 mV/s | NO release ([6]; XOR protein in assay 53.5 μg, 1 mM nitrite, 0.3 mM NADH): 76.35 mV/s | NO release ([6]; XOR protein in assay 107.0 μg, 1 mM nitrite, 0.3 mM NADH): 128.55 mV/s | NO release ([6]; XOR protein in assay 160.5 μg, 1 mM nitrite, 0.3 mM NADH): 187.20 mV/s | NO release ([6]; XOR protein in assay 214.0 μg, 1 mM nitrite, 0.3 mM NADH): 225.75 mV/s | optimum pH for the production of NO under the hypoxic conditions ([6]; hypoxic conditions): ~5.5 | killing above about 8% oxygen (E. coli [5]; E. coli): little or no killing | oxygen concentration of most effective killing (E. coli [5]; E. coli, XO 53.2 μg/ml, NADH 300 μM, NaNO2 1 mM, 37° C., 30 min): approximately 3 % of saturation | killing (E. coli [5]; E. coli, oxygen concentration about 21%): about 5% | killing above about 8% oxygen (S. enteritidis [7]): little or no killing | peak killing oxygen concentration (S. enteritidis [7]; XO, NADH, NaNO2): 0% | killing (S. enteritidis [7]; oxygen concentration about 21%): about 10% | growth inhibition ([4]; Staphylococcus, hypoxanthine 100 μM, range of XO concentrations): less marked growth inhibition
